{"source": "patent US20220031710A1", "about": "“USE OF ERK5 INHIBITORS FOR TREATING GLIOMAS IN PEDIATRIC SUBJECTS” (UNIVERSITY OF PITTSBURGH - OF THE COMMONWEALTH SYSTEM OF …, priority 2019, published 2022)", "key": {"MYC": {"system": "MYC", "assay": "Western blot of phospho MYC S62 and total MYC in DIPG cells", "assay_type": "cell-based, human", "details": "DIPG-IV and SF8628 cells; 500 nM", "method": "(§1) Cell pellets were lysed in PLC lysis buffer containing protease and phosphatase inhibitors (Roche Inc.). Protein lysates were quantified using the bicinchoninic acid (BCA) assay (Pierce Chemical Co., Rockford, Ill.). 30 μg of total protein lysate was loaded in 10% SDS-PAGE gels and electrophoresed. Proteins were transferred to PVDF membranes using a semi-dry transfer apparatus (Bio-Rad). Membranes were blocked for one hour and probed for various proteins overnight in 5% non-fat milk or 5% BSA in Tris Buffered Saline Solution, 0.5% Tween-20 (TBST) or Phosphate Buffered Saline Solution with 0.5% Tween-20 (PBST). Membranes were washed for 5 mins in TBST (3×) and incubated with horseradish peroxidase-conjugated antibodies specific for the primary antibody (BioRad Laboratories, Inc., CA, USA). Binding was detected using Chemiluminescence Reagent Plus (PerkinElmer Inc., MA, USA)."}, "[1]": {"system": "SF8628 intracranial xenografts", "assay": "SF8628 orthotopic xenograft model", "assay_type": "in vivo, mice", "method": "(§2) Paraffin embedded blocks were cut in 5 μm sections. Slides were processed as follows: de-waxed in xylene followed by rehydration in a standard alcohol series. Antigen retrieval was by pressure cooking for 20 minutes in citrate buffer (pH 6.0), followed by blocking of endogenous peroxidase in 3% H2O2. The antibodies were added and incubated overnight at 4° C. Antibodies were detected using a secondary-HRP labeled mouse or rabbit antibody detection system (Dako EnVision+ System-HRP cat #k4401, cat #k4403) followed by addition 3,3′-Diaminobenzidine (DAB) chromagen (Vector Labs) for visualization. Sections were counter-stained with hematoxylin (Fisher Scientific Inc., Canada) and slides dehydrated in 70, 80, and 100% ethanol and xylene. Slides were cover slipped and mounted in Permount (Fisher Scientific Inc.). Antibodies and concentrations for IHC are as follows: Ki67 (1:100, Dako, cat #F7268). All images were captured on a Leica DM 100 microscope using Leica Application Suite Software (Switzerland, Version 3.8.0).\n(§3) All animal procedures were carried out ethically according to animal user protocols approved by Institutional Animal Care Committee (IACUC). 4-6 week-old non-obese diabetic severe combined immune deficiency male or female mice (NOD-SCID-Prkdc^scid) were injected with 1×10^5 SU-DIPG-13p cells or 1×10^5 SF8628 DIPG cells. […]"}, "DIPG-13p cells xenograft": {"system": "DIPG-13p cells xenograft", "assay": "DIPG-13p orthotopic xenograft model", "assay_type": "in vivo, mice", "details": "50 mg/kg, 2 cycles of 5 days on 2 days off; DIPG-13p xenograft", "method": "as §2, §3"}, "ERK5 [2]": {"target": "T1, ERK5 (Homo sapiens, UniProt Q13164)", "T1 sequence (Q13164 whole entry)": "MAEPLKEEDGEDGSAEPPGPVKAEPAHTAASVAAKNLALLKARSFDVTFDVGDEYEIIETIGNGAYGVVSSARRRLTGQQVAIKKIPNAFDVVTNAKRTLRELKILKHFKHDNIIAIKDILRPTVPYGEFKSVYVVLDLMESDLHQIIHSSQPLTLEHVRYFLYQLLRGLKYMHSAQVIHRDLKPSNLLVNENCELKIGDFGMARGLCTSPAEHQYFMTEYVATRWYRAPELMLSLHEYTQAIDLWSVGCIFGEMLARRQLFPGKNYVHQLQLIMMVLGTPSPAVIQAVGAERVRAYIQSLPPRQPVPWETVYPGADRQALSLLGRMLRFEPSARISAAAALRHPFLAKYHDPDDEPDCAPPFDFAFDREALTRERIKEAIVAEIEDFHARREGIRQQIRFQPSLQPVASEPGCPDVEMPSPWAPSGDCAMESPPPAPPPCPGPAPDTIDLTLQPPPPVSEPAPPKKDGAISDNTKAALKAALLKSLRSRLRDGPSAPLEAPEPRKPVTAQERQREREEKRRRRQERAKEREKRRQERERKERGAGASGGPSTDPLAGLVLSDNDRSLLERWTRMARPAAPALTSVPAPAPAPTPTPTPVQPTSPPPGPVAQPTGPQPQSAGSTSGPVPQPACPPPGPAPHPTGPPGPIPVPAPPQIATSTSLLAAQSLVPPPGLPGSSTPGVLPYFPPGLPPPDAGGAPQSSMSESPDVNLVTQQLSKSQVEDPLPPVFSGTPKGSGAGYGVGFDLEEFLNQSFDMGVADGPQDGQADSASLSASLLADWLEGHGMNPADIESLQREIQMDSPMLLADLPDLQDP", "assay": "In vitro kinase assay of purified recombinant ERK5 and MYC", "assay_type": "biochemical", "set-up": "purchased ThermoFisher Scientific A32872", "details": "200 μM ATP, 30 minutes at 30° C.", "method": "Purified active recombinant ERK5 protein was purchased from ThermoFisher Scientific (Cat #A32872) and purified recombinant MYC was purchased from Abcam (Cat #ab84132). Purified ERK5 and MYC were resuspended in 40 μl of 1× kinase buffer supplemented with 200 μM ATP, 0.25 μg substrate, and 1.0 μg purified recombinant and active kinase. Samples were incubated in the presence or absence of ERK5 inhibitors for 30 minutes at 30° C. The reaction was terminated with 20 μl 3×SDS sample buffer. Samples were then boiled at 100° C. for 5 minutes and then evaluated by western blotting using a phospho MYC ser62 antibody (1:1000). 1× Kinase Buffer recipe: 25 mM Tris (pH 7.5), 5 mM β-glycerophosphate, 2 mM DTT, 0.1 mM Na3VO4, 10 mM MgCl2."}, "ERK5 [3]": {"target": "T1, ERK5", "assay": "Western blot of tumor lysates from treated mice (pERK5, cleaved PARP)", "assay_type": "in vivo", "set-up": "from tissue; host or cells: Tumour lysates from orthotopic DIPG xenografts (SF8628 or DIPG-13p) in NOD-SCID mice", "details": "mice sacrificed after 5 days of treatment", "method": "as §1, with “MA, USA). Antibodies were used at the following dilutions:” for “MA, USA).”\nas §3"}}}
{"smiles": "CCOc1cc(C(=O)N2CCC(N3CCN(C)CC3)CC2)ccc1Nc1ncc2c(n1)N(C1CCCC1)c1ccccc1C(=O)N2C", "note": "[ERK5-IN-1, 11-cyclopentyl-2-[[2-ethoxy-4-[[4-(4-methyl-1-piperazinyl)-1-piperidinyl]carbonyl]phenyl]amino]-5,11-dihydro-5-methyl-6H-pyrimido[4,5b][1,4]benzodiazepin-6-one]", "values": [{"measurement": "phospho and total MYC", "setting": "MYC", "value": "reduced"}, {"measurement": "median survival", "setting": "[1]; 50 mg/kg for 2 weeks (2 cycles of 5 days on 2 days off), SF8628 intracranial xenografts", "value": 40, "unit": "days"}, {"measurement": "KI-67 staining", "setting": "[1]; 50 mg/kg, SF8628 xenograft tumors, vs vehicle", "value": "reduced"}, {"measurement": "median survival", "setting": "DIPG-13p cells xenograft", "value": 30, "unit": "days"}, {"measurement": "Phosphorylation of MYC(S62)", "setting": "ERK5 [2]", "value": "inhibited"}, {"measurement": "apoptosis by cleaved PARP in vivo", "setting": "ERK5 [3]", "value": "induction of apoptosis"}, {"measurement": "in vivo ERK5 auto-phosphorylation", "setting": "ERK5 [3]", "value": "inhibition of ERK5 auto-phosphorylation"}]}
